The kinase profiling compilation of Christmann-Franck et al. (2016)

Experiments:
Assay in all cases: KINOMEscan competition binding
Settings in all cases: compound 10.0 µM
MAPK9 (human) = MAPK9 (human) (UniProt P45984)
EPHA6 (human) = EPHA6 (human) (UniProt Q9UF33)
SIK1 (human) = SIK1 (human) (UniProt P57059)
OXSR1 (human) = OXSR1 (human) (UniProt O95747)
MELK (human) = MELK (human) (UniProt Q14680)
ABL2 (human) = ABL2 (human) (UniProt P42684)
FER (human) = FER (human) (UniProt P16591)
CDK18 (human) = CDK18 (human) (UniProt Q07002)
CDKL5 (human) = CDKL5 (human) (UniProt O76039)
MAPKAPK2 (human) = MAPKAPK2 (human) (UniProt P49137)
PTK6 (human) = PTK6 (human) (UniProt Q13882)
CSNK2A2 (human) = CSNK2A2 (human) (UniProt P19784)
CDK13 (human) = CDK13 (human) (UniProt Q14004)
MAP2K1 (human) = MAP2K1 (human) (UniProt Q02750)
INSRR (human) = INSRR (human) (UniProt P14616)
SRC (human) = SRC (human) (UniProt P12931)
ADCK3 (human) = ADCK3 (human) (UniProt Q8NI60)
ROCK2 (human) = ROCK2 (human) (UniProt O75116)
[1] = system: EGFR (human), P00533 [T790M/L858R]
PAK6 (human) = PAK6 (human) (UniProt Q9NQU5)
MAPK4 (human) = MAPK4 (human) (UniProt P31152)
IRAK4 (human) = IRAK4 (human) (UniProt Q9NWZ3)
SBK1 (human) = SBK1 (human) (UniProt Q52WX2)
MYLK2 (human) = MYLK2 (human) (UniProt Q9H1R3)
MYLK3 (human) = MYLK3 (human) (UniProt Q32MK0)
TGFBR1 (human) = TGFBR1 (human) (UniProt P36897)
ZAP70 (human) = ZAP70 (human) (UniProt P43403)
PRKCQ (human) = PRKCQ (human) (UniProt Q04759)
HIPK4 (human) = HIPK4 (human) (UniProt Q8NE63)
STK32C (human) = STK32C (human) (UniProt Q86UX6)
RET (human) = RET (human) (UniProt P07949)
MAP3K10 (human) = MAP3K10 (human) (UniProt Q02779)
TAOK2 (human) = TAOK2 (human) (UniProt Q9UL54)
DCLK3 (human) = DCLK3 (human) (UniProt Q9C098)
STK32B (human) = STK32B (human) (UniProt Q9NY57)
FLT1 (human) = FLT1 (human) (UniProt P17948)
PAK4 (human) = PAK4 (human) (UniProt O96013)
PKMYT1 (human) = PKMYT1 (human) (UniProt Q99640)
DAPK1 (human) = DAPK1 (human) (UniProt P53355)
PIP5K1C (human) = PIP5K1C (human) (UniProt O60331)

Chain of IRAK4 (human) (Q9NWZ3 whole entry, looked up): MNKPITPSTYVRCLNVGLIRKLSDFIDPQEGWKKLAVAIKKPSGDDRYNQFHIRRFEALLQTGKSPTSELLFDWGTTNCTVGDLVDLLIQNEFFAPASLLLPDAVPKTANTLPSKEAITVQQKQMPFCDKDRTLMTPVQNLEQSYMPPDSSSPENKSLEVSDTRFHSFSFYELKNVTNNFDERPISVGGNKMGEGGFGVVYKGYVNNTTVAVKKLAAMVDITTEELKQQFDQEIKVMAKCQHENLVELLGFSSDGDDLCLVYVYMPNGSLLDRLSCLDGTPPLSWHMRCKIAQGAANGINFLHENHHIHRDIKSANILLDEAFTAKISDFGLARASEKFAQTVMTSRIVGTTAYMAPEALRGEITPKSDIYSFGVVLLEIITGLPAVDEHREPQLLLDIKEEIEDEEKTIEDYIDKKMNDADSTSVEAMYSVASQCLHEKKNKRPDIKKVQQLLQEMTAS
Chain of STK32C (human) (Q86UX6 whole entry, looked up): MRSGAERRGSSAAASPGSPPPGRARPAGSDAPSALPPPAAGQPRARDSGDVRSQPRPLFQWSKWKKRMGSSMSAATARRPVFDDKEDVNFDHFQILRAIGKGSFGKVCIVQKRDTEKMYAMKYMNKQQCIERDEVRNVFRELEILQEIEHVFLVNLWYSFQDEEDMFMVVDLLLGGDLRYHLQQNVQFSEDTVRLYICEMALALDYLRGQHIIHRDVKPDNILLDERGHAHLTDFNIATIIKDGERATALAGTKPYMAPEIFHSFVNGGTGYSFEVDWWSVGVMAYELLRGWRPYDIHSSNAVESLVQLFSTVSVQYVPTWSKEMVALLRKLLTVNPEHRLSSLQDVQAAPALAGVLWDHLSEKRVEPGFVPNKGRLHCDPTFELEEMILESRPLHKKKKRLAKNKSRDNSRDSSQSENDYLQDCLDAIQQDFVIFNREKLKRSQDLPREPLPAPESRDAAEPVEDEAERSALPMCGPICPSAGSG
Chain of TAOK2 (human) (Q9UL54 whole entry, looked up): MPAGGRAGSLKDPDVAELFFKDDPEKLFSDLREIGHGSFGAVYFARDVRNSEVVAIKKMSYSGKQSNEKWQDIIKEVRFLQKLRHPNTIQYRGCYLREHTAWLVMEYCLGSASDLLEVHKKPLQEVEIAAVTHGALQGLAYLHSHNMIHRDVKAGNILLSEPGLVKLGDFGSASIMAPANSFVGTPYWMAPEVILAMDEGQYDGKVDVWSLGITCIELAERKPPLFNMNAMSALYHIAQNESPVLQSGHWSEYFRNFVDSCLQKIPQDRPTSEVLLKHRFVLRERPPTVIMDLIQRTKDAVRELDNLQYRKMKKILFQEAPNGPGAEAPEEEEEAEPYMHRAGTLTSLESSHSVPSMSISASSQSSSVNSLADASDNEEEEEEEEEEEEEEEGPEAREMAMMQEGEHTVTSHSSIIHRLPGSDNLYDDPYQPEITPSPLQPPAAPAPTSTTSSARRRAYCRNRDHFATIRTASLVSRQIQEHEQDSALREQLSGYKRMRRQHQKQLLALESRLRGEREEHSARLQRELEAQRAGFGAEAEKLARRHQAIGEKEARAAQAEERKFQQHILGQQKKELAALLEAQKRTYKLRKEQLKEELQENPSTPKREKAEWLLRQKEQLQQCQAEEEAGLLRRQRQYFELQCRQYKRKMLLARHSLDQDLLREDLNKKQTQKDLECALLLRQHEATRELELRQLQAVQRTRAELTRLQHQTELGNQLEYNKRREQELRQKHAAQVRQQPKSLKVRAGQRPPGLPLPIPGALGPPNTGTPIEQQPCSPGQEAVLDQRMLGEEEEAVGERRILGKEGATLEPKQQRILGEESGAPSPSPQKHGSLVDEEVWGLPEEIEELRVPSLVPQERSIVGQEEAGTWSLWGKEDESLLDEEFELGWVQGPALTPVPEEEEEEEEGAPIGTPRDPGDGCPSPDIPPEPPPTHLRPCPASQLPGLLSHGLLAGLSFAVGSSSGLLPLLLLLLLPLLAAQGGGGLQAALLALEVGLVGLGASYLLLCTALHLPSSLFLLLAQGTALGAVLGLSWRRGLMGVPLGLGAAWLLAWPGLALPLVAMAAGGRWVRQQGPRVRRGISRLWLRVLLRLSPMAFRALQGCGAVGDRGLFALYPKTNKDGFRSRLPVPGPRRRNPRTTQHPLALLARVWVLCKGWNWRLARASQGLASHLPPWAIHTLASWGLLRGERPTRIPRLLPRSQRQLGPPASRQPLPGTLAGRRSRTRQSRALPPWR
Chain of EPHA6 (human) (Q9UF33 whole entry, looked up): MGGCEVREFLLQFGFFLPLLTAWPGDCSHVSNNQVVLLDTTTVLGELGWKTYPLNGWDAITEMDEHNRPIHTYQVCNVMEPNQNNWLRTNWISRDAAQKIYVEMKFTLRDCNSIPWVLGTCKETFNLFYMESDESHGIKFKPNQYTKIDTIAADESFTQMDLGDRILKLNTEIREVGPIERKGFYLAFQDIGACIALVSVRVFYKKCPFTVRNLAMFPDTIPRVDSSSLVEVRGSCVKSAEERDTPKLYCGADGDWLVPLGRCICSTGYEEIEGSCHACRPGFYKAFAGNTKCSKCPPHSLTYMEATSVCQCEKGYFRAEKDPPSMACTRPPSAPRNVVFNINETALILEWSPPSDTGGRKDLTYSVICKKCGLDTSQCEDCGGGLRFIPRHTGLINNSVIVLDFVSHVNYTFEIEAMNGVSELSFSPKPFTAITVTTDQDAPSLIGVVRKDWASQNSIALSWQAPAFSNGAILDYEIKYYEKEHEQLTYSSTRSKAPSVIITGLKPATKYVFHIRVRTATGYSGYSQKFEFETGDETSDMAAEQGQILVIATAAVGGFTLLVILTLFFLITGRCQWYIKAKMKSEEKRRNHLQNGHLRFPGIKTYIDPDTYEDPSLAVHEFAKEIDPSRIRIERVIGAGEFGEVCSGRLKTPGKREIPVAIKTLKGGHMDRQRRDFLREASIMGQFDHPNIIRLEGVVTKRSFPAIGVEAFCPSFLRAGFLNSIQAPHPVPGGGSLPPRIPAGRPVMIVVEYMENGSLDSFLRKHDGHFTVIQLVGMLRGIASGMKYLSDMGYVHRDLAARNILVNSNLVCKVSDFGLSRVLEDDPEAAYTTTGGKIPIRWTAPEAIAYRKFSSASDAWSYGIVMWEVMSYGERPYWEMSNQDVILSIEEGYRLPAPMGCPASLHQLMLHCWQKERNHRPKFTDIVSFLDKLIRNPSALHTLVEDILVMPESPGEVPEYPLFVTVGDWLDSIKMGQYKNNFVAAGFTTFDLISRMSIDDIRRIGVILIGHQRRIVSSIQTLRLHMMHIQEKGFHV
Chain of FLT1 (human) (P17948 whole entry, looked up): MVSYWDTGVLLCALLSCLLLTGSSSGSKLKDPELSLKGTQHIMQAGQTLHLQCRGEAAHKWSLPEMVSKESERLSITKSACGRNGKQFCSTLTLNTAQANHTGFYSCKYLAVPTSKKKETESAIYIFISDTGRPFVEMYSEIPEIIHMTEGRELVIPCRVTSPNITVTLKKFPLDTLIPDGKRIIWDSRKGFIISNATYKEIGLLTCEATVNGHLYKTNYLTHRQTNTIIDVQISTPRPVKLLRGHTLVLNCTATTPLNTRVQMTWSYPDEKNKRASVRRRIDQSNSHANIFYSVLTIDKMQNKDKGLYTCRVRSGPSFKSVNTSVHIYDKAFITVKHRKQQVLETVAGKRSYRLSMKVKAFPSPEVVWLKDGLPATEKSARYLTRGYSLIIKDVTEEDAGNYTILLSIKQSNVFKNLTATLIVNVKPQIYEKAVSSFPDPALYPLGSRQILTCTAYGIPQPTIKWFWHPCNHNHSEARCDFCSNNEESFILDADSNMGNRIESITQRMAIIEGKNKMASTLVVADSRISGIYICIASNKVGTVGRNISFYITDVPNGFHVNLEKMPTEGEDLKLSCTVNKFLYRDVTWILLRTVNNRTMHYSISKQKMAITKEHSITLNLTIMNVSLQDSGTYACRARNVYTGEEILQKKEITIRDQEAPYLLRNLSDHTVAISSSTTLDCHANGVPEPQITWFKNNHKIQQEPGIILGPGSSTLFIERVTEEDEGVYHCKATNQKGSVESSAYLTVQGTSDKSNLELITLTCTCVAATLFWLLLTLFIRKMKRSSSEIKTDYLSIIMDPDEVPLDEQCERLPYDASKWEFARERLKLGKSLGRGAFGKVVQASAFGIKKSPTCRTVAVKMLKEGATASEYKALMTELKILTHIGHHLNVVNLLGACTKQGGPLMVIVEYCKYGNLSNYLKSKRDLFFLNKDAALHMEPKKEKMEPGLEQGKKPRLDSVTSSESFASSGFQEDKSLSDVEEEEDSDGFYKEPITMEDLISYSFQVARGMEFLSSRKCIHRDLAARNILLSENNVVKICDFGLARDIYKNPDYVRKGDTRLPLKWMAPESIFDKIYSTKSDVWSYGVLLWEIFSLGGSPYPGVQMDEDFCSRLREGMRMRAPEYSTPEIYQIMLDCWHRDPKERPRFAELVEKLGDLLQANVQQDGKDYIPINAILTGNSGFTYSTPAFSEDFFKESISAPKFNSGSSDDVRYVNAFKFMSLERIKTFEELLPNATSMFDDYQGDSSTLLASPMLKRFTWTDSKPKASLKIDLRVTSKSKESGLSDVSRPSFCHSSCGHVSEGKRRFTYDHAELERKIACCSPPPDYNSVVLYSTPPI
Chain of SBK1 (human) (Q52WX2 whole entry, looked up): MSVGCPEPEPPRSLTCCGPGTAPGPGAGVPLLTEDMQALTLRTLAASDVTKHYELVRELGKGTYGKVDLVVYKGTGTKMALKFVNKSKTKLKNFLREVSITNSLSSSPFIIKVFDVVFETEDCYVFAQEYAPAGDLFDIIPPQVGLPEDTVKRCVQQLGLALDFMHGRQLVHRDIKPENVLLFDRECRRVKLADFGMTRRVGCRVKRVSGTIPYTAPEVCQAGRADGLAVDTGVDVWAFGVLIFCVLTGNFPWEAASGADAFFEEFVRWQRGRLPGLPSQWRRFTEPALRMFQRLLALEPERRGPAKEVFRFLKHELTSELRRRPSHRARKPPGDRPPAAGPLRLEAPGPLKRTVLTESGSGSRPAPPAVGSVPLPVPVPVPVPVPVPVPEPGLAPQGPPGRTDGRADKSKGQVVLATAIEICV

## O=C(Nc1cccc(Nc2ncc(Br)c(NCCc3cnc[nH]3)n2)c1)N1CCCC1
MAPK9 (human)
  kinase still bound, per cent of control: 0.3%
EPHA6 (human)
  kinase still bound, per cent of control: 54%
SIK1 (human)
  kinase still bound, per cent of control: 0.35%
OXSR1 (human)
  kinase still bound, per cent of control: 25%
MELK (human)
  kinase still bound, per cent of control: 2.2%
ABL2 (human)
  kinase still bound, per cent of control: 7.8%
FER (human)
  kinase still bound, per cent of control: 47%
CDK18 (human)
  kinase still bound, per cent of control: 100%
CDKL5 (human)
  kinase still bound, per cent of control: 1.8%
MAPKAPK2 (human)
  kinase still bound, per cent of control: 100%
PTK6 (human)
  kinase still bound, per cent of control: 45%
CSNK2A2 (human)
  kinase still bound, per cent of control: 0%
CDK13 (human)
  kinase still bound, per cent of control: 0.35%
MAP2K1 (human)
  kinase still bound, per cent of control: 0.15%
INSRR (human)
  kinase still bound, per cent of control: 4.8%
SRC (human)
  kinase still bound, per cent of control: 4%
ADCK3 (human)
  kinase still bound, per cent of control: 100%
ROCK2 (human)
  kinase still bound, per cent of control: 0.55%
[1]
  kinase still bound, per cent of control: 26%
PAK6 (human)
  kinase still bound, per cent of control: 11%
MAPK4 (human)
  kinase still bound, per cent of control: 3.2%
IRAK4 (human)
  kinase still bound, per cent of control: 0%
SBK1 (human)
  kinase still bound, per cent of control: 3.6%
MYLK2 (human)
  kinase still bound, per cent of control: 0.35%
MYLK3 (human)
  kinase still bound, per cent of control: 0.1%
TGFBR1 (human)
  kinase still bound, per cent of control: 77%
ZAP70 (human)
  kinase still bound, per cent of control: 7.1%
PRKCQ (human)
  kinase still bound, per cent of control: 3.6%
HIPK4 (human)
  kinase still bound, per cent of control: 2%
STK32C (human)
  kinase still bound, per cent of control: 100%
RET (human)
  kinase still bound, per cent of control: 0.1%
MAP3K10 (human)
  kinase still bound, per cent of control: 0%
TAOK2 (human)
  kinase still bound, per cent of control: 5.3%
DCLK3 (human)
  kinase still bound, per cent of control: 48%
STK32B (human)
  kinase still bound, per cent of control: 100%
FLT1 (human)
  kinase still bound, per cent of control: 0.6%
PAK4 (human)
  kinase still bound, per cent of control: 4%
PKMYT1 (human)
  kinase still bound, per cent of control: 100%
DAPK1 (human)
  kinase still bound, per cent of control: 1.2%
PIP5K1C (human)
  kinase still bound, per cent of control: 22%

## C=CC(=O)Nc1cc(-n2c(=O)ccc3cnc4ccc(-c5cn[nH]c5)cc4c32)ccc1C
MAPK9 (human)
  kinase still bound, per cent of control: 9.6%
EPHA6 (human)
  kinase still bound, per cent of control: 94%
SIK1 (human)
  kinase still bound, per cent of control: 77%
OXSR1 (human)
  kinase still bound, per cent of control: 79%
MELK (human)
  kinase still bound, per cent of control: 43%
ABL2 (human)
  kinase still bound, per cent of control: 86%
FER (human)
  kinase still bound, per cent of control: 100%
CDK18 (human)
  kinase still bound, per cent of control: 88%
CDKL5 (human)
  kinase still bound, per cent of control: 3.3%
MAPKAPK2 (human)
  kinase still bound, per cent of control: 100%
PTK6 (human)
  kinase still bound, per cent of control: 100%
CSNK2A2 (human)
  kinase still bound, per cent of control: 1.2%
CDK13 (human)
  kinase still bound, per cent of control: 100%
MAP2K1 (human)
  kinase still bound, per cent of control: 69%
INSRR (human)
  kinase still bound, per cent of control: 100%
SRC (human)
  kinase still bound, per cent of control: 100%
ADCK3 (human)
  kinase still bound, per cent of control: 91%
ROCK2 (human)
  kinase still bound, per cent of control: 72%
[1]
  kinase still bound, per cent of control: 18%
PAK6 (human)
  kinase still bound, per cent of control: 96%
MAPK4 (human)
  kinase still bound, per cent of control: 100%
IRAK4 (human)
  kinase still bound, per cent of control: 36%
SBK1 (human)
  kinase still bound, per cent of control: 90%
MYLK2 (human)
  kinase still bound, per cent of control: 89%
MYLK3 (human)
  kinase still bound, per cent of control: 100%
TGFBR1 (human)
  kinase still bound, per cent of control: 83%
ZAP70 (human)
  kinase still bound, per cent of control: 48%
PRKCQ (human)
  kinase still bound, per cent of control: 100%
HIPK4 (human)
  kinase still bound, per cent of control: 51%
STK32C (human)
  kinase still bound, per cent of control: 100%
RET (human)
  kinase still bound, per cent of control: 55%
MAP3K10 (human)
  kinase still bound, per cent of control: 100%
TAOK2 (human)
  kinase still bound, per cent of control: 76%
DCLK3 (human)
  kinase still bound, per cent of control: 100%
STK32B (human)
  kinase still bound, per cent of control: 100%
FLT1 (human)
  kinase still bound, per cent of control: 100%
PAK4 (human)
  kinase still bound, per cent of control: 100%
PKMYT1 (human)
  kinase still bound, per cent of control: 81%
DAPK1 (human)
  kinase still bound, per cent of control: 70%
PIP5K1C (human)
  kinase still bound, per cent of control: 42%

## COc1ccc(N(C(=O)Oc2c(C)cccc2C)c2ccnc(Nc3ccc(N4CCN(C)CC4)cc3)n2)c(OC)c1
MAPK9 (human)
  kinase still bound, per cent of control: 2.6%
EPHA6 (human)
  kinase still bound, per cent of control: 0%
SIK1 (human)
  kinase still bound, per cent of control: 0.3%
OXSR1 (human)
  kinase still bound, per cent of control: 93%
MELK (human)
  kinase still bound, per cent of control: 46%
ABL2 (human)
  kinase still bound, per cent of control: 0.1%
FER (human)
  kinase still bound, per cent of control: 0.85%
CDK18 (human)
  kinase still bound, per cent of control: 100%
CDKL5 (human)
  kinase still bound, per cent of control: 100%
MAPKAPK2 (human)
  kinase still bound, per cent of control: 100%
PTK6 (human)
  kinase still bound, per cent of control: 0%
CSNK2A2 (human)
  kinase still bound, per cent of control: 95%
CDK13 (human)
  kinase still bound, per cent of control: 100%
MAP2K1 (human)
  kinase still bound, per cent of control: 38%
INSRR (human)
  kinase still bound, per cent of control: 100%
SRC (human)
  kinase still bound, per cent of control: 0.05%
ADCK3 (human)
  kinase still bound, per cent of control: 26%
ROCK2 (human)
  kinase still bound, per cent of control: 88%
[1]
  kinase still bound, per cent of control: 14%
PAK6 (human)
  kinase still bound, per cent of control: 71%
MAPK4 (human)
  kinase still bound, per cent of control: 100%
IRAK4 (human)
  kinase still bound, per cent of control: 100%
SBK1 (human)
  kinase still bound, per cent of control: 100%
MYLK2 (human)
  kinase still bound, per cent of control: 0.95%
MYLK3 (human)
  kinase still bound, per cent of control: 100%
TGFBR1 (human)
  kinase still bound, per cent of control: 0.75%
ZAP70 (human)
  kinase still bound, per cent of control: 79%
PRKCQ (human)
  kinase still bound, per cent of control: 21%
HIPK4 (human)
  kinase still bound, per cent of control: 8.8%
STK32C (human)
  kinase still bound, per cent of control: 19%
RET (human)
  kinase still bound, per cent of control: 0.1%
MAP3K10 (human)
  kinase still bound, per cent of control: 19%
TAOK2 (human)
  kinase still bound, per cent of control: 2.4%
DCLK3 (human)
  kinase still bound, per cent of control: 100%
STK32B (human)
  kinase still bound, per cent of control: 1.1%
FLT1 (human)
  kinase still bound, per cent of control: 11%
PAK4 (human)
  kinase still bound, per cent of control: 97%
PKMYT1 (human)
  kinase still bound, per cent of control: 100%
DAPK1 (human)
  kinase still bound, per cent of control: 73%
PIP5K1C (human)
  kinase still bound, per cent of control: 96%
